Results published in patent US20100248960A1, “Method For Protecting Cereals From Being Infected By Fungi” (BASF SE, priority 2007, published 2010).

Assays:
[1] = system: Puccinia recondita; experiment: Preventative control of brown rust on wheat caused by Puccinia recondita; assay type: in vivo; conditions: efficacy in % of untreated control (90% infection), read-out: Observed activity (% infection); for inhibition at 1 ppm: sprayed 1 day before inoculation
Protocol: (§1) The active compounds were prepared as a stock solution comprising 25 mg of N-(trans-2-bicycloprop-2-ylphenyl)-3-difluoromethyl-1-methyl-1H-pyrazole-4-carboxamide (Ia), which was made up to 10 ml using a mixture of acetone and/or dimethyl sulfoxide and the emulsifier Wettol® EM31 (wetting agent having an emulsifying and dispersing action based on ethoxylated alkylphenols) in a ratio by volume of solvent/emulsifier of 99:1. The mixture was then made up to 100 ml with water. This stock solution was diluted with the solvent/emulsifier/water mixture described to give the concentration of active compound stated below. Epoxiconazole and metconazole were employed as a commercial finished formulation and diluted with water to the stated concentration of active compound.
(§2) The visually determined percentages of infected leaf areas were converted into efficacies in % of the untreated control.
(§3) The efficacy (E) is calculated as follows using Abbot's formula: […]
(§4) αcorresponds to the fungicidal infection of the treated plants in % and βcorresponds to the fungicidal infection of the untreated (control) plants in %
(§5) An efficacy of 0 means that, the infection level of the treated plants corresponds to that of the untreated control plants; an efficacy of 100 means that the treated plants were not infected.
(§6) The expected efficacies of active compound combinations were determined using Colby's formula (Colby, S.R. “Calculating synergistic and antagonistic responses of herbicide combinations”, Weeds, 15, pp. 20-22, 1967) and compared with the observed efficacies.
(§7) Colby's formula: E=x+y−x•y/100 • E expected efficacy, expressed in % of the untreated control, when using the mixture of the active compounds A and B at the concentrations a and b • x efficacy, expressed in % of the untreated control, when using the active compound A at the concentration a • y efficacy, expressed in % of the untreated control, when using the active compound B at the concentration b
The first two developed leaves of pot-grown wheat seedling were sprayed to run-off with an aqueous suspension, containing the concentration of active ingredient as described below. The next day the plants were inoculated with spores of Puccinia recondita. To ensure the success the artificial inoculation, the plants were transferred to a humid chamber without light and a relative humidity of 95 to 99% and 20 to 22° C. for 24 h. Then the trial plants were cultivated for 6 days in a greenhouse chamber at 22-26° C. and a relative humidity between 65 and 70%. The extent of fungal attack on the leaves was visually assessed as % diseased leaf area.
The expected efficacies of mixtures of active compounds were determined using Colby's formula and compared with the observed efficacies.

[2] = system: Puccinia recondita; experiment: Curative control of brown rust on wheat caused by Puccinia recondita; assay type: in vivo; conditions: assessed after 8 days, efficacy in % of untreated control (90% infection), read-out: Observed activity (% infection); for inhibition at 0.063 ppm: 192 h; for inhibition at 0.25 ppm: sprayed 1 day after inoculation
Protocol: as §1, §2, §3, §4, §5, §6, §7
The first two developed leaves of pot-grown wheat seedling were dusted with spores of Puccinia recondita. To ensure the success the artificial inoculation, the plants were transferred to a humid chamber without light and a relative humidity of 95 to 99% and 20 to 22° C. for 24 h. The next day the plants were sprayed to run-off with an aqueous suspension, containing the concentration of active ingredient as described below. The plants were allowed to air-dry. Then the trial plants were cultivated for 8 days in a greenhouse chamber at 22-26° C. and a relative humidity between 65 and 70%. The extent of fungal attack on the leaves was visually assessed as % diseased leaf area. The expected efficacies of mixtures of active compounds were determined using Colby's formula and compared with the observed efficacies.

SMILES	inhibition at 0.25 ppm ([1]; 0.25 ppm) [%]	inhibition at 1 ppm [1] [%]	inhibition at 0.063 ppm [2] [%]	inhibition at 0.25 ppm [2] [%]	inhibition at 0.063 ppm ([1]; 0.063 ppm) [%]
Cn1cc(C(=O)Nc2ccccc2[C@@H]2C[C@H]2C2CC2)c(C(F)F)n1 [Compound (Ia), N-(trans-2-bicycloprop-2-ylphenyl)-3-difluoromethyl-1-methyl-1H-pyrazole-4-carboxamide]	0	22	0	0	
Fc1ccc([C@]2(Cn3cncn3)O[C@H]2c2ccccc2Cl)cc1 (racemic) [epoxiconazole]			22		
CC1(C)CCC(Cc2ccc(Cl)cc2)C1(O)Cn1cncn1 (centres unmarked) [metconazole]		0		44	0
